Laboratory results as given in patent publication US20120053220A1, “NOVEL LIPOXYGENASE INHIBITORS AS NEUROPROTECTIVE AGENTS” (The General Hospital Corporation d/b/a Massachusetts …, priority 2007, published 2012).

Key:
[1] = antioxidant test: quenching of the stable free radical DPPH; conditions: 5 μM test compound, 500 μM DPPH, absorbance 517 nm; FIG. 1B
Experimental: The rate of reaction is proportional to the antioxidant potency of the test compounds. A known free radical scavenger, nordihydroguaiaretic acid (NDGA), was used as a positive control. 10 μL, of 1 mM testing reagents to achieve final concentrations of 5 μM were added to 2 mL of 500 μM DPPH stirring in a cuvette.

[2] = target: T1, 15-hLOX-1 (Homo sapiens, UniProt P16050); conditions: natural products known to inhibit 15-hLOX-1; read-out: IC50 against 15-hLOX-1; cited from earlier work
T1 sequence (P16050 1-662): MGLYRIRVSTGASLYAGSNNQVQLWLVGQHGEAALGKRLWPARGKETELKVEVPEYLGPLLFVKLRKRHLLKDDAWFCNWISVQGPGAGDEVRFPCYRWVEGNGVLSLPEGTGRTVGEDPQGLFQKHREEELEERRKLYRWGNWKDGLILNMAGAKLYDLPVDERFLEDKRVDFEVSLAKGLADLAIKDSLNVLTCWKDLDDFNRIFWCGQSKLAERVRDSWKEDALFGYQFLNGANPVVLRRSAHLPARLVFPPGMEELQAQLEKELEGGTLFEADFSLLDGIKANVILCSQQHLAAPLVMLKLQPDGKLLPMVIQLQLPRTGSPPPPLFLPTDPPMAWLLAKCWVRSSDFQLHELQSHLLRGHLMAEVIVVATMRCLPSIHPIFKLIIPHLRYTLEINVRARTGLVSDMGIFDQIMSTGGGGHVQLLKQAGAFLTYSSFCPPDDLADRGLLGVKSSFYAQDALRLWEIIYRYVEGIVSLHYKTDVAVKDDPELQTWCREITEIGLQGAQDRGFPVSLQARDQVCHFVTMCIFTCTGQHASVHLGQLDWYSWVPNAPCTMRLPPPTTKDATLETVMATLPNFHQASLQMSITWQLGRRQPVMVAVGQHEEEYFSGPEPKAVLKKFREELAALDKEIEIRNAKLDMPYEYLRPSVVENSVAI

Compound	antioxidant activity (quenching of DPPH radical) [1]	IC50 [2] [µM]
CC(Cc1ccc(O)c(O)c1)C(C)Cc1ccc(O)c(O)c1 (centres unmarked) [NDGA, nordihydroguaiaretic acid]	rapid quenching	
C[C@H]1[C@H](C)CC[C@]2(C)CC[C@]3(C)C(=CC[C@@H]4[C@@]5(C)CC[C@@H](O)[C@](C)(C(=O)O)[C@@H]5CC[C@]43C)[C@H]12 [boswellic acid]		1
